Source: patent US11331299B2, “Medicinal use of serrulatane diterpenes” (The University of Sydney, priority 2016, dated 2022)
Like-named read-outs stand apart in the source and are kept apart here.

Assays:
Assay in all cases: biochemical
Format in all cases: binding
[1] = target: dopamine D3 (h) (Homo sapiens, UniProt P35462)
[2] = target: receptors (Bioprint panel) (Homo sapiens, UniProt P28335); settings: read-out: % Inhibition of Control Specific Binding
[3] = target: receptors (Bioprint panel) (Homo sapiens, UniProt P24530); settings: […] (h) (agonist radioligand); 10 μM; read-out: % Inhibition of Control Specific Binding
[4] = target: receptors (Bioprint panel) (Homo sapiens, UniProt P35368); settings: […] alpha 1B (h) (antagonist radioligand); 10 μM; read-out: % Inhibition of Control Specific Binding
[5] = target: T1, receptors (Bioprint panel) (Homo sapiens, UniProt P30556); settings: A[…] AT1 (h) (antagonist radioligand); 10 μM; read-out: % Inhibition of Control Specific Binding
T1 construct: other: ANGIOTENSIN II AT1 (h) (antagonist radioligand); 10 μM

[6] = target: receptors (Bioprint panel) (Homo sapiens, UniProt Q9UKP6); settings: read-out: % Inhibition of Control Specific Binding
[7] = target: receptors (Bioprint panel) (Mus musculus, UniProt Q01727); settings: MELANOCORTIN MC1 (agonist radioligand); 10 μM; read-out: % Inhibition of Control Specific Binding
[8] = test system: receptors (Bioprint panel); settings: 10 μM
[9] = target: receptors (Bioprint panel) (Homo sapiens, UniProt Q9Y5N1); settings: HISTAMINE H3 (h) (agonist radioligand); 10 μM; read-out: % Inhibition of Control Specific Binding
[10] = target: receptors (Bioprint panel) (Homo sapiens, UniProt P30542); settings: ADENOSINE A1 (h) (agonist radioligand); 10 μM; read-out: % Inhibition of Control Specific Binding
[11] = target: receptors (Bioprint panel) (Homo sapiens, UniProt O43193); settings: motilin(h) (agonist radioligand); 10 μM; read-out: % Inhibition of Control Specific Binding
[12] = target: receptors (Bioprint panel) (Homo sapiens, UniProt P30518); settings: VASOPRESSIN V2 (h) (agonist radioligand); 10 μM; read-out: % Inhibition of Control Specific Binding
[13] = target: receptors (Bioprint panel) (Rattus norvegicus, UniProt P28564); settings: read-out: % Inhibition of Control Specific Binding
[14] = target: receptors (Bioprint panel) (Homo sapiens, UniProt P41968); settings: MELANOCORTIN MC3 (h) (agonist radioligand); 10 μM; read-out: % Inhibition of Control Specific Binding
[15] = target: receptors (Bioprint panel) (Homo sapiens, UniProt Q13639); settings: read-out: % Inhibition of Control Specific Binding
[16] = target: receptors (Bioprint panel) (Homo sapiens, UniProt P41143); settings: OPIOD & OPIOID-LIKE delta (DOP) (h) (agonist radioligand); 10 μM; read-out: % Inhibition of Control Specific Binding
[17] = target: receptors (Bioprint panel) (Homo sapiens, UniProt P47871); settings: glucagon (h) (agonist radioligand); 10 μM; read-out: % Inhibition of Control Specific Binding
[18] = target: receptors (Bioprint panel) (Homo sapiens, UniProt P25101); settings: […] (h) (agonist radioligand); 10 μM; read-out: % Inhibition of Control Specific Binding
[19] = target: receptors (Bioprint panel) (Homo sapiens, UniProt P13945); settings: Adrenergic beta3; 10 μM; read-out: % Inhibition of Control Specific Binding
[20] = target: receptors (Bioprint panel) (Homo sapiens, UniProt P11229); settings: […] M1 (h) (antagonist radioligand); 10 μM; read-out: % Inhibition of Control Specific Binding
[21] = target: receptors (Bioprint panel) (Homo sapiens, UniProt P30872); settings: SOMASTATIN sst1 (h) (agonist radioligand); 10 μM; read-out: % Inhibition of Control Specific Binding
[22] = target: receptors (Bioprint panel) (Homo sapiens, UniProt P32245); settings: MELANOCORTIN MC4 (h) (agonist radioligand); 10 μM; read-out: % Inhibition of Control Specific Binding
[23] = target: receptors (Bioprint panel) (Homo sapiens, UniProt P32241); settings: […] VPAC1 (VIP1) (h) (agonist radioligand); 10 μM; read-out: % Inhibition of Control Specific Binding
[24] = target: receptors (Bioprint panel) (Homo sapiens, UniProt Q01959); settings: dopamine transporter (h) (antagonist radioligand); 10 μM; read-out: % Inhibition of Control Specific Binding

Sequence of dopamine D3 (h) (P35462 whole entry): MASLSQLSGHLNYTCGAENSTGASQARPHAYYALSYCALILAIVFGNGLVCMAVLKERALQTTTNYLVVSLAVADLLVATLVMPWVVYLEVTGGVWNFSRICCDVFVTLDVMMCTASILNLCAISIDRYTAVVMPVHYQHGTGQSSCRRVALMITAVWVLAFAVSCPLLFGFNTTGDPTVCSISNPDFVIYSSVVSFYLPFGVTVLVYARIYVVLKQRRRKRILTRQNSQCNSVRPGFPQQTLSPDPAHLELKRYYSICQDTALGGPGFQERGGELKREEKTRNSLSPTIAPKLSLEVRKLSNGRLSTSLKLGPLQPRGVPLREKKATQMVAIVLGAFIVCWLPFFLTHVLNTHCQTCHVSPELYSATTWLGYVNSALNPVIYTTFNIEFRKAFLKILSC
Sequence of receptors (Bioprint panel) (Homo sapiens, UniProt P28335) (P28335 33-458): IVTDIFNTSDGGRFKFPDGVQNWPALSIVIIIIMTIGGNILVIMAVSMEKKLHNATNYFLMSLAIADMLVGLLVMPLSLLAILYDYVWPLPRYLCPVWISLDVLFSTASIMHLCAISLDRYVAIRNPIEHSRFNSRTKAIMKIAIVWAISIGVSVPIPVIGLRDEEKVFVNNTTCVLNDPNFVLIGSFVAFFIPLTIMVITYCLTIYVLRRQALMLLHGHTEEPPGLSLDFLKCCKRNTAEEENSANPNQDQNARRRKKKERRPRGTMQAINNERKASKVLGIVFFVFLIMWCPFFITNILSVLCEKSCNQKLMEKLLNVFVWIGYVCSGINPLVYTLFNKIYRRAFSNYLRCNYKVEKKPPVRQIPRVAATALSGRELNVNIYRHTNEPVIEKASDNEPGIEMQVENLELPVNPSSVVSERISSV
Sequence of receptors (Bioprint panel) (Homo sapiens, UniProt P24530) (P24530 27-442): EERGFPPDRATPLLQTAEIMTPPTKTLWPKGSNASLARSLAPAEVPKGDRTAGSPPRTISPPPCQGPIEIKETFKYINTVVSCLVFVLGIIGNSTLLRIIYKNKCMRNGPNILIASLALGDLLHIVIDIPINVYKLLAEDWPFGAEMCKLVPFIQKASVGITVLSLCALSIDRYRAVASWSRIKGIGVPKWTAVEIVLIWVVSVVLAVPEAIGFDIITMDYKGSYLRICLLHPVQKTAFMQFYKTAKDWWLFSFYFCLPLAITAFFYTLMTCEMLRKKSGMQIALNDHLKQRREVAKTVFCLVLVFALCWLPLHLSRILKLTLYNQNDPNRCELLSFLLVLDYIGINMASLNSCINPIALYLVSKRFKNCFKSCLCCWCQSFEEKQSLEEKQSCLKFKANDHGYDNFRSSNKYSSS
Sequence of receptors (Bioprint panel) (Homo sapiens, UniProt P32245) (P32245 whole entry): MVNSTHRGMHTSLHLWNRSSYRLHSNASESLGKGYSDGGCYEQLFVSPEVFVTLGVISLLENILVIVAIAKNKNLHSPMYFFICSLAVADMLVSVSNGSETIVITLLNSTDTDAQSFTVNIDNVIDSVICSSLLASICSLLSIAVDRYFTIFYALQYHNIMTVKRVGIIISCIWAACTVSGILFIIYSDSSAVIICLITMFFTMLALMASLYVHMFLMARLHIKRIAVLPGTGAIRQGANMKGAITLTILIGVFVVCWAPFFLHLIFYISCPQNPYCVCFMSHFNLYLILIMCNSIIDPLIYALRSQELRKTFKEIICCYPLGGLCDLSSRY
Sequence of receptors (Bioprint panel) (Homo sapiens, UniProt P30542) (P30542 whole entry): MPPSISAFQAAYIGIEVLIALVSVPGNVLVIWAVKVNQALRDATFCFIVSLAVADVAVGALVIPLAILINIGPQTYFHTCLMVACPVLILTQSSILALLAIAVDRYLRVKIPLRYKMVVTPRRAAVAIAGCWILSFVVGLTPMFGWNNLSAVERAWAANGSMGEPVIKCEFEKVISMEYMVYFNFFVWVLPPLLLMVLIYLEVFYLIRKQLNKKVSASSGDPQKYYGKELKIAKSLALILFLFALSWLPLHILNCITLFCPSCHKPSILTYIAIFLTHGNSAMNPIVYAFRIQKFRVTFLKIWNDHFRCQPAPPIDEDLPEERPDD
Sequence of receptors (Bioprint panel) (Homo sapiens, UniProt P32241) (P32241 31-457): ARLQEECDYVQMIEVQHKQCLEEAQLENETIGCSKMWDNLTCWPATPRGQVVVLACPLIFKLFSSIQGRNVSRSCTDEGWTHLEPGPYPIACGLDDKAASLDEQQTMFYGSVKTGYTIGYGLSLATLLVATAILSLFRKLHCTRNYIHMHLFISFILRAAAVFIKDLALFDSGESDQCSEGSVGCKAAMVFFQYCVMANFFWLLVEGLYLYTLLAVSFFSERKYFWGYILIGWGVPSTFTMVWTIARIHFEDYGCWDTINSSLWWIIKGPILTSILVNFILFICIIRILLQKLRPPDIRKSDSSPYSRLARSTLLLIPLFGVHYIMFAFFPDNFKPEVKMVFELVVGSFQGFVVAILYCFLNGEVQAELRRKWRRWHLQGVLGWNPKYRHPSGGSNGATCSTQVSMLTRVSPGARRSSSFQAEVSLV
Sequence of receptors (Bioprint panel) (Homo sapiens, UniProt P41968) (P41968 whole entry): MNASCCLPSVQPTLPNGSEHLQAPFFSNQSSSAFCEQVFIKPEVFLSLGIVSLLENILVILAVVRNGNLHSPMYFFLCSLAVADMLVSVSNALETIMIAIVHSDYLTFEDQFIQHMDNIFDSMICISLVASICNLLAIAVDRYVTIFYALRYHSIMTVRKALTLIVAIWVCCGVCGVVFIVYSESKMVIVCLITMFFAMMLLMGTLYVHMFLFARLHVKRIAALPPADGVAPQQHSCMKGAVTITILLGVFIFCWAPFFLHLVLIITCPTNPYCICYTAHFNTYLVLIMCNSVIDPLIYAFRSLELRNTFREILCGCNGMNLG
Sequence of receptors (Bioprint panel) (Mus musculus, UniProt Q01727) (Q01727 whole entry): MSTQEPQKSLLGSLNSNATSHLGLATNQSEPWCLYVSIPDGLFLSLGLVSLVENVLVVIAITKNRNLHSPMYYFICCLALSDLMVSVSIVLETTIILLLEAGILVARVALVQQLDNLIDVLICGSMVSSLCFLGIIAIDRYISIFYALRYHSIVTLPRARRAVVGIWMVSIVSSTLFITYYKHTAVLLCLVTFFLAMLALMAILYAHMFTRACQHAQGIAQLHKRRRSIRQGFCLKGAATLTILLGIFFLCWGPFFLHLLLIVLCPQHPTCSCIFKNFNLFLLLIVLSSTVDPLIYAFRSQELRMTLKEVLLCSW
Sequence of receptors (Bioprint panel) (Homo sapiens, UniProt P30872) (P30872 whole entry): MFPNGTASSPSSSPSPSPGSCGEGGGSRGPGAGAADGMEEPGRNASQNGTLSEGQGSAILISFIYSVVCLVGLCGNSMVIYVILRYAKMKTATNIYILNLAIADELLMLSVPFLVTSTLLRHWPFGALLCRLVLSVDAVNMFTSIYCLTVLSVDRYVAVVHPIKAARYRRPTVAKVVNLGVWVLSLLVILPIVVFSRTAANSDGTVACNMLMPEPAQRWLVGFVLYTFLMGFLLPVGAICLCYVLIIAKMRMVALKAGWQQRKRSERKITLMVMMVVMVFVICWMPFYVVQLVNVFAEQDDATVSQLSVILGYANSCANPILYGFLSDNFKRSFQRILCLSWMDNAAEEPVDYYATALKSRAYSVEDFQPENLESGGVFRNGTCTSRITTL
Sequence of receptors (Bioprint panel) (Homo sapiens, UniProt P47871) (P47871 whole entry): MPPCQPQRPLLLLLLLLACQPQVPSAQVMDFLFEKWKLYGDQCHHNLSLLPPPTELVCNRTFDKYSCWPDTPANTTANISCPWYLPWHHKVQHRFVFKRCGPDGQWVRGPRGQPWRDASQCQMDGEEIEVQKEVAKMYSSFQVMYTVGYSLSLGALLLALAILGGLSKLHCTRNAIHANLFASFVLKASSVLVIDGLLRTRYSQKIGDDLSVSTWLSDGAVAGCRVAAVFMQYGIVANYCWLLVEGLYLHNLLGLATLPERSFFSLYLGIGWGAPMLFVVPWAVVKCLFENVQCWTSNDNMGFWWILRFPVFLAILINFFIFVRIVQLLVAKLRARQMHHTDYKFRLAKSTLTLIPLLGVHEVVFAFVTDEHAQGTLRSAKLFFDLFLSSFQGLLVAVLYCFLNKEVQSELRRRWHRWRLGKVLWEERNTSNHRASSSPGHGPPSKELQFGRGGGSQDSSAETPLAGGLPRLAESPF
T1 sequence (P30556 whole entry): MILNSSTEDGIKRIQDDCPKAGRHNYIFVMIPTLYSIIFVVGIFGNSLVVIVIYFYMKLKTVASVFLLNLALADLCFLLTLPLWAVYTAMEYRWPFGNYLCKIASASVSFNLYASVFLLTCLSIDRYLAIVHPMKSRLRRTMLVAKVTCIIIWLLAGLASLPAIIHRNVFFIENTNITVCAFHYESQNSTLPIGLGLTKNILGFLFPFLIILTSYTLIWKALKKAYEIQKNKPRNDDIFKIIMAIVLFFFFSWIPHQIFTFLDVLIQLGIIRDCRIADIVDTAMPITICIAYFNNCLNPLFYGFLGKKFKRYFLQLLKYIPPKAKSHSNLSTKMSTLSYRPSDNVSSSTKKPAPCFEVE
Sequence of receptors (Bioprint panel) (Homo sapiens, UniProt P11229) (P11229 whole entry): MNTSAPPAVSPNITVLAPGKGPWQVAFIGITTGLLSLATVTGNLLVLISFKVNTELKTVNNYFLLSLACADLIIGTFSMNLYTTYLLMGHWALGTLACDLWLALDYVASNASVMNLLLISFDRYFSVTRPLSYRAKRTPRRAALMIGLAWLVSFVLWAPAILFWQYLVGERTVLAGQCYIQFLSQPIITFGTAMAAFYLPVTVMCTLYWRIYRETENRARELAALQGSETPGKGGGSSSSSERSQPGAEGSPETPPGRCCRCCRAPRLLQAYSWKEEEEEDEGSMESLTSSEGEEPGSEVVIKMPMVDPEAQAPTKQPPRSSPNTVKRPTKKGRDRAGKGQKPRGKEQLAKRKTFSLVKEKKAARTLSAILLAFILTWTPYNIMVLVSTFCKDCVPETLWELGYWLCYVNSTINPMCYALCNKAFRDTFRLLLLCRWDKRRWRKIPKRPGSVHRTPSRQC

## CC(C)=CCC[C@H](CO)[C@@H]1CC[C@@H](C)c2c1cc(C)c(O)c2O [Compound 1, 7,8,18-trihydroxyserrulat-14-ene]
[1]; DOPAMINE D3 (h) (antagonist radioligand), read-out: % Inhibition of Control Specific Binding
  inhibition at 10 µM: 85%
[1]; read-out: % inhibition of control specific binding
  inhibition at 10 µM: 85%
[2]
  inhibition at 10 µM: 32%
[3]
  inhibition at 10 µM: 40%
[4]
  inhibition at 10 µM: 41%
[5]
  inhibition at 10 µM: 60%
[6]
  inhibition at 10 µM: 46%
[7]
  inhibition at 10 µM: 11%
[8]
  % Inhibition of Control Specific Binding: 11%
[8]; CYTOKINES TNF-alpha (h) (agonist radioligand)
  % Inhibition of Control Specific Binding: −23%
[8]; Ca2+ channel (L, dihydropyridine site) (antagonist radioligand)
  % Inhibition of Control Specific Binding: 55%
[8]; Ca2+ channel (L, diltiazem site) (benzothiazepines) (antagonist radioligand)
  % Inhibition of Control Specific Binding: −30%
[8]; Ca2+ channel (L, verapamil site) (phenylalkylamine) (antagonist radioligand)
  % Inhibition of Control Specific Binding: −4%
[8]; Cl- channel (GABA-gated) (antagonist radioligand)
  % Inhibition of Control Specific Binding: 42%
[8]; GABA CHANNELS BZD (central) (agonist radioligand)
  % Inhibition of Control Specific Binding: −31%
[8]; GABA transporter (antagonist radioligand)
  % Inhibition of Control Specific Binding: −10%
[8]; GLUTAMATE CHANNELS AMPA (agonist radioligand)
  % Inhibition of Control Specific Binding: 4%
[8]; GLUTAMATE CHANNELS NMDA (antagonist radioligand)
  % Inhibition of Control Specific Binding: 9%
[8]; GLUTAMATE CHANNELS PCP (antagonist radioligand)
  % Inhibition of Control Specific Binding: −11%
[8]; GLUTAMATE CHANNELS kainate (agonist radioligand)
  % Inhibition of Control Specific Binding: 15%
[8]; Na+ channel (site 2) (antagonist radioligand)
  % Inhibition of Control Specific Binding: 48%
[8]; SKCa channel (antagonist radioligand)
  % Inhibition of Control Specific Binding: 14%
[8]; Thyroid Hormone
  % Inhibition of Control Specific Binding: 9%
[9]
  inhibition at 10 µM: 10%
[10]
  inhibition at 10 µM: 10%
[11]
  inhibition at 10 µM: -12%
[12]
  inhibition at 10 µM: 11%
[13]
  inhibition at 10 µM: 42%
[14]
  inhibition at 10 µM: 60%
[15]
  inhibition at 10 µM: 2%
[16]
  inhibition at 10 µM: 62%
[17]
  inhibition at 10 µM: -20%
[18]
  inhibition at 10 µM: 6%
[19]
  inhibition at 10 µM: 33%
[20]
  inhibition at 10 µM: 8%
[21]
  inhibition at 10 µM: 18%
[22]
  inhibition at 10 µM: 37%
[23]
  inhibition at 10 µM: -9%
[24]
  inhibition at 10 µM: 63%
